Data published in patent US8790654B2, “Glycosylceramide adjuvant for saccharide antigens” (Novartis AG, priority 2004, dated 2014).

System: CRM protein carrier
Experiment: CRM-specific Ig titre in mice immunised with MenC-CRM conjugate with or without α-GalCer
Type: in vivo
Details: MenC-CRM conjugate and α-GalCer, compared with conjugate alone; 2wp2 and 2wp3
Description: C) Immunisation schedule for mice with different polysaccharides, plain, conjugated or admixed with protein carriers, with and without α-GalCer. Ten groups of wild-type C57BL/6 mice were primed on day 0 with: 1) PBS, 2) 0.1 μg with α-GalCer, 3) 10 μg MenC polysaccharide, 4) 20 μg CRM protein carrier, 5) 30 μg of a MenC-CRM conjugate, 6) 10 μg MenC polysaccharide admixed with CRM protein carrier, or the compositions in 3)-6) and α-GalCer (groups 7-10). Mice were boosted two and four weeks after they were primed with the same composition with which they were primed. Mice were bled 2, 4 and 6 weeks after initial priming (2wp1, 2wp2 and 2wp3) and the levels of antibodies against both the MenC polysaccharide and the CRM carrier were measured.
FIG. 5: α-GalCer enhances the specific antibody response against both the MenC polysaccharide and the CRM protein carrier in a MenC-CRM conjugate. Wild-type mice were primed with 10 μg MenC polysaccharide, 20 μg CRM protein carrier, 10 μg MenC polysaccharide admixed with CRM protein carrier (MenC+CRM), or 30 μg of a MenC-CRM conjugate, or the same compositions with α-GalCer. Mice were boosted two and four weeks after they were primed with the same composition with which they were primed.

CCCCCCCCCCCCCCCCCCCCCCCCCC(=O)N[C@@H](CO[C@H]1O[C@H](CO)[C@H](O)[C@H](O)[C@H]1O)[C@H](O)[C@H](O)CCCCCCCCCCCCCC [α-GalCer, α-galactosylceramide]
CRM-specific Ig titre: enhanced
